# From patent US9233979B2, “Compounds that are ERK inhibitors” (Merck Sharp & Dohme Corp., priority 2012, dated 2016)
# Read-outs that look alike come from different tables or passages of the source.
# Biological target: phosphorylated active hERK2 enzyme (Homo sapiens (Human), UniProt P28482)
# Assay: Active Human ERK2 (hERK2) Activity Assay (IMAP-FP)
# Type: biochemical
# Details: 10 point titration, read-out: AERK2 IC50
# Method in brief: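 IMAP fluorescence-polarization kinase assay: 0.5 nM activated hERK2 with 900 nM unlabeled plus 80 nM labeled peptide and 30 μM ATP, reacted 60 min. Quenched with IMAP beads in binding buffer with 24 mM NaCl; FP read after 60 min equilibration.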
# [1] = Table 6, 0.5 nM hERK2, 30 μM ATP
# Chain of phosphorylated active hERK2 enzyme (P28482 whole entry): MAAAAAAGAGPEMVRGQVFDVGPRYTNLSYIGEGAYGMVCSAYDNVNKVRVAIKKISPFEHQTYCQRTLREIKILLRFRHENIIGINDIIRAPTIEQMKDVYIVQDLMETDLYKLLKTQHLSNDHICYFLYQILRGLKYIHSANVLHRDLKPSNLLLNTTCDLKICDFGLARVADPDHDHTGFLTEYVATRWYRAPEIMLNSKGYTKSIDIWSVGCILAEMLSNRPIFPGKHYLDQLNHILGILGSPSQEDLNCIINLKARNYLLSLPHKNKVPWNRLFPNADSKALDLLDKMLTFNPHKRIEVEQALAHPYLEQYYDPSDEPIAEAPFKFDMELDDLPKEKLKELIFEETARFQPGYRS
structure (smiles),measurement,setting,value
"C[C@@H](NC(=O)Nc1cc2[nH]nc(NCC(F)(F)F)c2cn1)c1ccccc1 [Example 341, 1-[(1R)-1-phenylethyl]-3-{3-[(2,2,2-trifluoro-ethyl)amino]-1H-pyrazolo[4,3-c]-pyridin-6-yl}urea]",IC50,[1],2.4 nM
"CCNc1n[nH]c2cc(NC(=O)N[C@H](C)c3ccc(Cl)c(Cl)c3)ncc12 [Example 248, 1-[(1R)-1-(3,4-dichlorophenyl)ethyl]-3-[3-(ethyl-amino)-1H-pyrazolo[4,3-c]-pyridin-6-yl]urea]",IC50,[1],3.2 nM
"C[C@@H](NC(=O)Nc1cc2[nH]nc(N3CCCC3=O)c2cn1)c1ccccc1 [Example 408, 1-[3-(2-oxopyrrolidin-1-yl)-1H-pyrazolo[4,3-c]-pyridin-6-yl]-3-[(1R)-1-phenylethyl]urea]",IC50,[1],101 nM
"CNc1n[nH]c2cc(NC(=O)N[C@@H](c3ccccc3)[C@@H]3CCCO3)ncc12 [Example 144, 1-(3-(methylamino)-1H-pyrazolo[4,3-c]pyridin-6-yl)-3-((S)-phenyl((S)-tetrahydrofuran-2-yl)methyl)urea]",IC50,[1],2 nM
"CN(C)c1ncccc1CNC(=O)Nc1cc2[nH]nc(N)c2cn1 [Example 274, 1-(3-amino-1H-pyrazolo[4,3-c]-pyridin-6-yl)-3-{[2-(dimethylamino)-pyridin-3-yl]-methyl}urea]",IC50,[1],32.4 nM
"C[C@@H]1CN(c2n[nH]c3cc(NC(=O)NC(c4ccc(F)cc4)C(C)(C)O)ncc23)C[C@H](C)O1 (stereo partly drawn) [Example 435, 1-{3-[(2R,6S)-2,6-dimethylmorpholin-4-yl]-1H-pyrazolo[4,3-c]-pyridin-6-yl}-3-[1-(4-fluorophenyl)-2-hydroxy-2-methylpropyl]urea]",IC50,[1],1.6 nM
"C[C@@H](NC(=O)Nc1cc2[nH]nc(N[C@@H]3COC[C@@H]3F)c2cn1)c1ccccc1 [Example 84, 1-(3-{[(3R,4R)-4-fluorotetrahydrofuran-3-yl]amino}-1H-pyrazolo[4,3-c]-pyridin-6-yl)-3-[(1R)-1-phenylethyl]urea]",IC50,[1],4.4 nM
"C[C@@H](O)[C@@H](NC(=O)Nc1cc2[nH]nc(N3CCC(F)(F)CC3)c2cn1)c1ccc(F)cc1 [Example 365, 1-[3-(4,4-difluoropiperidin-1-yl)-1H-pyrazolo[4,3-c]pyridin-6-yl]-3-[(1S,2R)-1-(4-fluorophenyl)-2-hydroxypropyl]urea]",IC50,[1],0.9 nM
"CC(C)(O)[C@@H](NC(=O)Nc1cc2[nH]nc(N3CCOCC3)c2c(CO)n1)c1ccccc1 [Example 109, 1-[4-(hydroxymethyl)-3-morpholin-4-yl-1H-pyrazolo[4,3-c]-pyridin-6-yl]-3-[(1S)-2-hydroxy-2-methyl-1-phenylpropyl]urea]",IC50,[1],0.3 nM
"C[C@@H](NC(=O)Nc1cc2[nH]nc(NC3CCOC3)c2cn1)c1ccccc1 (stereo partly drawn) [Example 161, 1-[(1R)-1-phenylethyl]-3-[3-(tetrahydrofuran-3-ylamino)-1H-pyrazolo[4,3-c]pyridin-6-yl]urea]",IC50,[1],2.3 nM
"CC[C@H](NC(=O)Nc1cc2[nH]nc(N3CCCC3)c2cn1)c1ccccn1 [Example 345, 1-[(1S)-1-pyridin-2-ylpropyl]-3-(3-pyrrolidin-1-yl-1H-pyrazolo[4,3-c]-pyridin-6-yl)urea]",IC50,[1],13.8 nM
"CC(C)(O)[C@@H](NC(=O)Nc1cc2[nH]nc(N3CCC3)c2c(CO)n1)c1ccc(F)cc1 [Example 101, 1-[3-azetidin-1-yl-4-(hydroxymethyl)-1H-pyrazolo[4,3-c]-pyridin-6-yl]-3-[(1S)-1-(4-fluorophenyl)-2-hydroxy-2-methylpropyl]urea]",IC50,[1],0.9 nM
"CC(C)Nc1n[nH]c2cc(NC(=O)N[C@H](C)c3ccc(F)cc3)ncc12 [Example 340, (R)-1-(1-(4-fluorophenyl)ethyl)-3-(3-(isopropyl-amino)-1H-pyrazolo[4,3-c]-pyridin-6-yl)urea]",IC50,[1],1.6 nM
"C[C@@H](NC(=O)Nc1cc2[nH]nc(NCC3CCOCC3)c2cn1)c1ccccc1 [Example 166, 1-[(1R)-1-phenylethyl]-3-{3-[(tetrahydro-2H-pyran-4-yl-methyl)amino]-1H-pyrazolo[4,3-c]pyridin-6-yl}urea]",IC50,[1],1.7 nM
"C[C@H](Nc1n[nH]c2cc(NC(=O)N[C@H](C)c3ccccc3)ncc12)C(F)F [Example 354, 1-(3-{[(1S)-2,2-difluoro-1-methyl-ethyl]amino}-1H-pyrazolo[4,3-c]-pyridin-6-yl)-3-[(1R)-1-phenylethyl]urea]",IC50,[1],2.2 nM
"C[C@@H](NC(=O)Nc1cc2[nH]nc(NC3CCOCC3)c2cn1)c1ccccc1 [Example 327, 1-[(1R)-1-phenylethyl]-3-[3-(tetrahydro-2H-pyran-4-ylamino)-1H-pyrazolo[4,3-c]pyridin-6-yl]urea]",IC50,[1],1 nM
"CC(C)(O)[C@@H](NC(=O)Nc1cc2[nH]nc(NC(=O)N3CCC(F)(F)C3)c2cn1)c1ccc(F)cc1 [Example 131, 3,3-difluoro-N-[6-({[(1S)-1-(4-fluorophenyl)-2-hydroxy-2-methylpropyl}-carbamoyl}amino)-1H-pyrazolo[4,3-c]pyridin-3-yl]-pyrrolidine-1-carboxamide]",IC50,[1],1.5 nM
"CC(C)(O)[C@@H](NC(=O)Nc1cc2[nH]nc(N)c2cn1)c1ccccc1 [Example 425, 1-(3-amino-1H-pyrazolo[4,3-c]-pyridin-6-yl)-3-[(1S)-2-hydroxy-2-methyl-1-phenylpropyl]urea]",IC50,[1],14.9 nM
"CC[C@@H](NC(=O)Nc1cc2[nH]nc(N)c2cn1)c1ccc(Cl)cc1 [Example 273, 1-(3-amino-1H-pyrazolo[4,3-c]pyridin-6-yl)-3-[(1R)-1-(4-chloro-phenyl)propyl]urea]",IC50,[1],2.6 nM
"Nc1n[nH]c2c(Cl)c(NC(=O)N[C@H](COC(F)F)c3ccccc3)ncc12 [Example 363, 1-(3-amino-7-chloro-1H-pyrazolo[4,3-c]pyridin-6-yl)-3-[(1S)-2-(difluoromethoxy)-1-phenylethyl]urea]",IC50,[1],52.2 nM
"CC[C@@H](NC(=O)Nc1cc2[nH]nc(N3CCCC3)c2cn1)c1ccccn1 [Example 344, 1-[(1R)-1-pyridin-2-ylpropyl]-3-(3-pyrrolidin-1-yl-1H-pyrazolo[4,3-c]-pyridin-6-yl)urea]",IC50,[1],1020 nM
"CNc1n[nH]c2cc(NC(=O)N[C@H](C)c3ccc(F)cc3)ncc12 [Example 1, 1-[(1R)-1-(4-Fluorophenyl)ethyl]-3-[3-(methylamino)-1H-pyrazolo[4,3-c]pyridin-6-yl]urea]",IC50,"Table 5, 0.5 nM hERK2, 30 μM ATP",7.85 nM
"COC[C@@H](NC(=O)Nc1cc2[nH]nc(N)c2c(C)n1)c1ccccc1 [Example 335, 1-(3-amino-4-methyl-1H-pyrazolo[4,3-c]-pyridin-6-yl)-3-[(1S)-2-methoxy-1-phenylethyl]urea]",IC50,[1],3 nM
"COC(=O)Nc1n[nH]c2cc(NC(=O)NC3COc4ccccc4C3)ncc12 (centres unmarked) [Example 294, methyl {6-[(3,4-dihydro-2H-chromen-3-ylcarbamoyl)amino]-1H-pyrazolo[4,3-c]pyridin-3-yl}-carbamate]",IC50,[1],26.4 nM
"C[C@@H](NC(=O)Nc1cc2[nH]nc(N3CC4C5CCC(C)(O5)C4C3)c2cn1)c1ccc(F)cc1 (stereo partly drawn) [Example 376, 1-[(1R)-1-(4-fluorophenyl)ethyl]-3-[3-(4-methyl-octahydro-2H-4,7-epoxyisoindol-2-yl)-1H-pyrazolo[4,3-c]-pyridin-6-yl]urea]",IC50,[1],13.8 nM
"C[C@@H](NC(=O)Nc1cc2[nH]nc(NC3CC(N)C3)c2cn1)c1ccccc1 (stereo partly drawn) [Example 216, 1-{3-[(3-amino-cyclobutyl)amino]-1H-pyrazolo[4,3-c]pyridin-6-yl}-3-[(1R)-1-phenylethyl]urea]",IC50,[1],12 nM
"CC(C)(O)[C@@H](NC(=O)Nc1cc2[nH]nc(N3CC4CC3CO4)c2cn1)c1ccc(F)cc1 (stereo partly drawn) [Example 446, 1-[(1S)-1-(4-fluorophenyl)-2-hydroxy-2-methylpropyl]-3-[3-(2-oxa-5-azabicyclo[2.2.1]hept-5-yl)-1H-pyrazolo[4,3-c]pyridin-6-yl]urea]",IC50,[1],0.8 nM
"Cc1cc([C@@H](C)NC(=O)Nc2cc3[nH]nc(N)c3cn2)ccc1Cl [Example 276, 1-(3-amino-1H-pyrazolo[4,3-c]pyridin-6-yl)-3-[(1R)-1-(4-chloro-3-methylphenyl)-ethyl]urea]",IC50,[1],2.3 nM
"CC(C)(O)[C@@H](NC(=O)Nc1cc2[nH]nc(N3CCOCC3)c2cn1)c1ccc(F)cc1 [Example 438, 1-[(1S)-1-(4-fluorophenyl)-2-hydroxy-2-methylpropyl]-3-(3-morpholin-4-yl-1H-pyrazolo[4,3-c]-pyridin-6-yl)urea]",IC50,[1],0.4 nM
"CC(C)OC(=O)Nc1n[nH]c2cc(NC(=O)N[C@H](C)c3ccccc3)ncc12 [Example 223, 1-methylethyl[6-({[(1R)-1-phenylethyl]-carbamoyl}amino)-1H-pyrazolo[4,3-c]pyridin-3-yl]-carbamate]",IC50,[1],12.4 nM
"Cc1nnsc1C(=O)Nc1n[nH]c2cc(NC(=O)N[C@H](C)c3ccccc3)ncc12 [Example 200, 4-methyl-N-[6-({[(1R)-1-phenylethyl]-carbamoyl}amino)-1H-pyrazolo[4,3-c]pyridin-3-yl]-1,2,3-thiadiazole-5-carboxamide]",IC50,[1],1.1 nM
"COC(=O)Nc1n[nH]c2cc(NC(=O)N[C@H](C)c3ccc(F)cc3)ncc12 [Example 321, (R)-methyl (6-(3-(1-(4-fluorophenyl)ethyl)ureido)-1H-pyrazolo[4,3-c]pyridin-3-yl)carbamate]",IC50,[1],2.6 nM
"O=C(Nc1cc2[nH]nc(N3CC4CC3CO4)c2cn1)N[C@H](CO)c1ccccc1 (stereo partly drawn) [Example 450, 1-[(1S)-2-hydroxy-1-phenylethyl]-3-[3-(2-oxa-5-azabicyclo[2.2.1]-hept-5-yl)-1H-pyrazolo[4,3-c]-pyridin-6-yl]urea]",IC50,[1],4.3 nM
"CCNc1n[nH]c2cc(NC(=O)N[C@H](CC)c3ccc(Cl)cc3)ncc12 [Example 247, 1-[(1R)-1-(4-chlorophenyl)propyl]-3-[3-(ethylamino)-1H-pyrazolo[4,3-c]-pyridin-6-yl]urea]",IC50,[1],2.2 nM
"COC(=O)Nc1n[nH]c2cc(NC(=O)NCc3ccccc3OC(F)F)ncc12 [Example 296, methyl [6-({[2-(difluoromethoxy)-benzyl]carbamoyl}-amino)-1H-pyrazolo[4,3-c]-pyridin-3-yl}-carbamate]",IC50,[1],2.5 nM
